31 compounds from patent US9284303B2, “Benzimidazole cannabinoid agonists bearing a substituted heterocyclic group” (priority 2006, dated 2016) can be followed below.

The melting point is the temperature of the solid-liquid transition.

Some results are limits rather than exact numbers.

Data set [1] deals with T1, human CB2 (hCB2) receptor (Homo sapiens, UniProt P34972).
T1 construct: expressed in transfected cells; host or cells: CHO-K1
Briefly: Inhibition of forskolin-activated cAMP production upon activation of hCB2 (HTRF), CHO-K1 cells. The format is cell-based. The conditions noted are these: for ratio CB2 agonism over CB1 agonism: Table C-1, selectivity hCB2 over hCB1; for ratio CB2 over CB1 agonism: Table C-3, comparison of art compounds A to E with compounds of the invention; for EC50: hCB2-CHO-K1 cells, forskolin-activated cAMP, pEC50=-log(EC50), read-out: CB2 pEC50 (converted). (Cyclic AMP is a second messenger, typically raised through Gs and lowered through Gi signalling.)

Data set [2] deals with T2, human CB1 (hCB1) receptor (Homo sapiens, UniProt P21554).
T2 construct: expressed in transfected cells; host or cells: CHO-K1
Description: Inhibition of forskolin-activated cAMP production upon activation of hCB1 (HTRF), CHO-K1 cells. It is filed as cell-based. The following applies: CB1 pEC50, hCB1-CHO-K1 cells, forskolin-activated cAMP, pEC50=-log(EC50). The essentials:
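CHO-K1 cells stably expressing hCB1 (20,000/well) were in HBSS stimulation buffer (1 mM IBMX, 10 mM MgCl2, 0.1% BSA, pH 7.4), with 6 μM forskolin in the compound buffer, 30 min at room temperature in the dark. cAMP was read as HTRF 665/620 ratio, normalized to DMSO and CP55490. Outputs were pEC50 and inhibition at 10 μM relative to CP55490.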

T1 sequence (P34972 whole entry): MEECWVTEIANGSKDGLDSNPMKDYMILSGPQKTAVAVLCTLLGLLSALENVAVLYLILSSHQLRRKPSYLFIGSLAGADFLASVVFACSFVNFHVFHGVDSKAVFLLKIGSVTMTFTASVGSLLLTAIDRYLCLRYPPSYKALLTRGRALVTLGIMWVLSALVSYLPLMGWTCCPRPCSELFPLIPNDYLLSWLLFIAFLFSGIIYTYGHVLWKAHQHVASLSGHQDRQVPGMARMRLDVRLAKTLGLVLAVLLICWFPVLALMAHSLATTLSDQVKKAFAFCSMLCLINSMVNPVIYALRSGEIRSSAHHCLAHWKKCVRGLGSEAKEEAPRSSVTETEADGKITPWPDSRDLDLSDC
T2 sequence (P21554 whole entry): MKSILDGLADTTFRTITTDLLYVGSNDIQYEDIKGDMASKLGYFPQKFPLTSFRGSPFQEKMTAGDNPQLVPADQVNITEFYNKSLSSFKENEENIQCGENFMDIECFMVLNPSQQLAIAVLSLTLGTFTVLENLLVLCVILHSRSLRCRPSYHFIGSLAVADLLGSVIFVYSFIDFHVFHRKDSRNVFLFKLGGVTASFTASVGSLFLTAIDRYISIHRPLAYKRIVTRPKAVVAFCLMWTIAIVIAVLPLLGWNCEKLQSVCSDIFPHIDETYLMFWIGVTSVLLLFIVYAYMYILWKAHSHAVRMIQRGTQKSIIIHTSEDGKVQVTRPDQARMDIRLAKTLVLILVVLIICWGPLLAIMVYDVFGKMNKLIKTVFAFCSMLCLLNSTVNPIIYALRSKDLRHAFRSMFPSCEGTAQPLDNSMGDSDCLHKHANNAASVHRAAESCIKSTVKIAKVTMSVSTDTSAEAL

The compound `CC(C)(C)c1nc2cc(S(=O)(=O)c3ccnc(N)c3)ccc2n1CC1CCOCC1` [Co. No. 19] registered a melting point of 235.9 °C. For the same compound, in data set [1], the “ratio CB2 agonism over CB1 agonism” value was 638, the “ratio CB2 over CB1 agonism” value was 638 and the EC50 was 1.12 nM. The compound also showed an EC50 in data set [2] of 724 nM.

Compound `CC(C)(C)c1nc2cc(S(=O)(=O)c3ccc(S(C)(=O)=O)o3)ccc2n1CC1CCOCC1` [Co. No. 20] had a melting point of 165.2 °C. Also, in data set [1], the “ratio CB2 agonism over CB1 agonism” value stood at 347, the “ratio CB2 over CB1 agonism” value is listed as 346 and the EC50 was 1.26 nM. In addition, in data set [2], the EC50 is 437 nM.

Take `CC(=O)Nc1cc(S(=O)(=O)c2ccc3c(c2)nc(C(C)(C)C)n3CC2CCOCC2)ccn1` [Co. No. 22]: the melting point is 262.3 °C. For the same compound, in data set [1], the “ratio CB2 agonism over CB1 agonism” value came to 1758, the “ratio CB2 over CB1 agonism” value is listed as 1758 and the EC50 is 1.12 nM. Besides, the EC50 in data set [2] was 2000 nM.

For `CC(C)(C)c1nc2cc(S(=O)(=O)c3ccnc(OCC(F)(F)F)c3)ccc2n1CC1CCOCC1` [Co. No. 23], the melting point worked out at 166.7 °C. Further, in data set [1], the “ratio CB2 agonism over CB1 agonism” value came out at 398, the “ratio CB2 over CB1 agonism” value is recorded as 398 and the EC50 was 1.02 nM. For the same compound, the EC50 in data set [2] is 407 nM.

`Cc1cc(S(=O)(=O)c2ccc3c(c2)nc(CC(C)(C)C)n3CC2CCOCC2)ccn1` [Co. No. 24] registered a melting point of 207.1 °C. Besides, in data set [1], the “ratio CB2 agonism over CB1 agonism” value stood at 407, the “ratio CB2 over CB1 agonism” value is 407 and the EC50 is 2.19 nM. In addition, the EC50 in data set [2] was 891 nM.

In the case of `CC(C)(C)c1nc2cc(S(=O)(=O)c3ccc(S(C)(=O)=O)nc3)ccc2n1CC1CCCCC1` [Co. No. 27], the melting point was 200 °C. In data set [1], the “ratio CB2 agonism over CB1 agonism” value is greater than 14125 and the EC50 is 0.708 nM. Further, the EC50 in data set [2] was greater than 10000 nM.

With `Cn1cc(S(=O)(=O)c2ccc3c(c2)nc(C(C)(C)C)n3CC2CCOCC2)ccc1=O` [Co. No. 28], the melting point was 170 °C. Also, in data set [1], the “ratio CB2 agonism over CB1 agonism” value is on record as greater than 3467, the “ratio CB2 over CB1 agonism” value was 3467 and the EC50 was 2.88 nM. The compound further showed an EC50 in data set [2] greater than 10000 nM.

For `CC(C)(C)c1nc2cc(S(=O)(=O)c3nccc(C(N)=O)n3)ccc2n1CC1CCOCC1` [Co. No. 29], the melting point fell in the range of 220 to 222 °C. In addition, in data set [1], the “ratio CB2 agonism over CB1 agonism” value was determined as 417 and the EC50 is 3.16 nM. The compound further gave an EC50 in data set [2] of 1320 nM.

Compound `COC(=O)c1ccc(S(=O)(=O)c2ccc3c(c2)nc(C(C)(C)C)n3CC2CCOCC2)nc1` [Co. No. 30] yielded a melting point of 195 to 197 °C. In addition, in data set [1], the “ratio CB2 agonism over CB1 agonism” value is 3055 and the EC50 was 1.7 nM. Besides, in data set [2], the EC50 was determined as 5250 nM.

The compound `CC(C)(C)c1nc2cc(S(=O)(=O)c3cncc(C#N)c3)ccc2n1CC1CCCCC1` [Co. No. 36] yielded a melting point of 215 to 216 °C. Further, in data set [1], the “ratio CB2 agonism over CB1 agonism” value is 108 and the EC50 was 0.676 nM. For the same compound, the EC50 in data set [2] is 72.4 nM.

`COCCNC(=O)c1ccc(S(=O)(=O)c2ccc3c(c2)nc(C(C)(C)C)n3CC2CCCCC2)nc1` [Co. No. 37] came in with a melting point of 206 to 207 °C. Also, in data set [1], the “ratio CB2 agonism over CB1 agonism” value is greater than 10839 and the EC50 is 0.933 nM. In data set [2], this compound returned an EC50 greater than 10000 nM.

For `CC(=O)c1ccc(S(=O)(=O)c2ccc3c(c2)nc(C(C)(C)C)n3CC2CCOCC2)s1` [Co. No. 40], the melting point turned out to be 151 °C. In addition, in data set [1], the “ratio CB2 agonism over CB1 agonism” value is listed as 193 and the EC50 was 1.07 nM. In data set [2], this compound had an EC50 of 209 nM.

`CC(C)(C)c1nc2cc(S(=O)(=O)c3cncc(C#N)c3)ccc2n1CC1CCOCC1` [Co. No. 43]: the melting point amounted to 240 °C. Besides, in data set [1], the “ratio CB2 agonism over CB1 agonism” value turned out to be 1622 and the EC50 is 1 nM. The EC50 in data set [2] was 1620 nM.

Turning to `CC(C)(C)c1nc2cc(S(=O)(=O)c3cncc(C(N)=O)c3)ccc2n1CC1CCOCC1` [Co. No. 44], the melting point turned out to be 259 °C. In data set [1], the “ratio CB2 agonism over CB1 agonism” value came out at 64 and the EC50 was 2 nM. This compound also had an EC50 in data set [2] of 126 nM.

For `CC(C)(C)c1nc2cc(S(=O)(=O)c3ccc(C4(C)OCCO4)cn3)ccc2n1CC1CCOCC1` [Co. No. 45], the melting point was 191 °C. In data set [1], the “ratio CB2 agonism over CB1 agonism” value is reported as greater than 3311 and the EC50 was 3.02 nM. In data set [2], this compound gave an EC50 greater than 10000 nM.

In the case of `CC(C)(C)c1nc2cc(S(=O)(=O)c3ccc(-c4ncon4)s3)ccc2n1CC1CCOCC1` [Co. No. 48], the melting point was determined as 199 °C. In data set [1], the “ratio CB2 agonism over CB1 agonism” value was found to be 347 and the EC50 was 0.575 nM. In data set [2], this compound gave an EC50 of 200 nM.

In the case of `COC(C)c1ccc(S(=O)(=O)c2ccc3c(c2)nc(C(C)(C)C)n3CC2CCOCC2)nc1` (stereo not shown) [Co. No. 49], the melting point was determined as 140 °C. In data set [1], the “ratio CB2 agonism over CB1 agonism” value was greater than 2138 and the EC50 is 4.68 nM. Also, the EC50 in data set [2] is greater than 10000 nM.

On to `CC(=O)c1ccc(S(=O)(=O)c2ccc3c(c2)nc(C(C)(C)C)n3CC2CCOCC2)cn1` [Co. No. 50], for which the melting point amounted to 162 °C. Besides, in data set [1], the “ratio CB2 agonism over CB1 agonism” value amounted to 6457 and the EC50 is 0.692 nM. In data set [2], this compound had an EC50 of 4470 nM.

For `CC(C)(C)c1nc2cc(S(=O)(=O)c3ccc(C#N)nc3)ccc2n1CC1CCOCC1` [Co. No. 51], the melting point amounted to 228 °C. Besides, in data set [1], the “ratio CB2 agonism over CB1 agonism” value was 73 and the EC50 is 1.23 nM. This compound had an EC50 in data set [2] of 89.1 nM.

Take `COc1ccc(S(=O)(=O)c2ccc3c(c2)nc(C(C)(C)C)n3CC2CCOCC2)cn1` [Co. No. 52]: the melting point came out at 198 °C. In addition, the “ratio CB2 agonism over CB1 agonism” value in data set [1] (listed as 52) is listed as 331. In data set [1], the EC50 was 0.692 nM. The compound also showed an EC50 in data set [2] of 229 nM.

In turn, `CC(C)(C)c1nc2cc(S(=O)(=O)c3ccc(C(C)(C)O)s3)ccc2n1CC1CCOCC1` [Co. No. 53] yielded a melting point of 258 °C. In addition, in data set [1], the “ratio CB2 agonism over CB1 agonism” value is on record as 607 and the EC50 is 3.72 nM. In data set [2], this compound had an EC50 of 2240 nM.

In turn, `CC(C)(C)c1nc2cc(S(=O)(=O)c3coc(C4OCCO4)c3)ccc2n1CC1CCOCC1` [Co. No. 55] yielded a melting point of 141 °C. Moreover, in data set [1], the “ratio CB2 agonism over CB1 agonism” value is on record as 363 and the EC50 is 2.29 nM. In addition, the EC50 in data set [2] is 832 nM.

Compound `CC(C)(C)c1nc2cc(S(=O)(=O)c3ccc(S(C)(=O)=O)nc3)ccc2n1CC1CCOCC1` [Co. No. 56] had a melting point of 150 to 160 °C. Further, in data set [1], the “ratio CB2 agonism over CB1 agonism” value is on record as greater than 3802 and the EC50 is 2.63 nM. The compound further gave an EC50 in data set [2] greater than 10000 nM.

As for `CC(C)(C)c1nc2cc(S(=O)(=O)c3ccc(S(C)(=O)=O)s3)ccc2n1CC1CCOCC1` [Co. No. 57], the melting point is 216 °C. The “ratio CB2 agonism over CB1 agonism” value in data set [1] (listed as 57) is given as 1328. Besides, the EC50 in data set [1] was 1.1 nM. This compound also gave an EC50 in data set [2] of 1450 nM.

In turn, `CCNS(=O)(=O)c1ccc(S(=O)(=O)c2ccc3c(c2)nc(C(C)(C)C)n3CC2CCOCC2)s1` [Co. No. 59] had a melting point of 158 °C. Also, in data set [1], the “ratio CB2 agonism over CB1 agonism” value is 2018 and the EC50 is 1.12 nM. Further, in data set [2], the EC50 is 2290 nM.

In the case of `CC(C)(C)c1nc2cc(S(=O)(=O)c3ccc(C#N)o3)ccc2n1CC1CCOCC1` [Co. No. 60], the melting point was in the range of 145.5 to 145.7 °C. Moreover, in data set [1], the “ratio CB2 agonism over CB1 agonism” value was 638 and the EC50 is 1.05 nM. This compound had an EC50 in data set [2] of 661 nM.

`CC(C)(C)c1nc2cc(S(=O)(=O)c3sc(S(C)(=O)=O)cc3Br)ccc2n1CC1CCOCC1` [Co. No. 62] came in with a melting point of 200 °C. Also, the “ratio CB2 agonism over CB1 agonism” value in data set [1] (listed as 62) worked out at 3299. Also, the EC50 in data set [1] was 0.589 nM. Moreover, the EC50 in data set [2] is 1950 nM.

Take `CC(C)(C)c1nc2cc(S(=O)(=O)c3sc(S(=O)(=O)N4CCOCC4)cc3Br)ccc2n1CC1CCOCC1` [Co. No. 65]: the melting point came to 230 °C. Besides, in data set [1], the “ratio CB2 agonism over CB1 agonism” value was greater than 3388 and the EC50 was 2.95 nM. Further, the EC50 in data set [2] was greater than 10000 nM.

Compound `CC(C)(C)c1nc2cc(S(=O)(=O)c3ccc(S(=O)(=O)N4CCOCC4)cn3)ccc2n1CC1CCOCC1` [Co. No. 66] yielded a melting point of 224 °C. In data set [1], the “ratio CB2 agonism over CB1 agonism” value is greater than 676 and the EC50 was 14.8 nM. In data set [2], this compound yielded an EC50 greater than 10000 nM.

`CC(C)(C)c1nc2cc(S(=O)(=O)c3ccc(S(C)(=O)=O)cn3)ccc2n1CC1CCOCC1` [Co. No. 67] displayed a melting point of 183 °C. In data set [1], the “ratio CB2 agonism over CB1 agonism” value is recorded as greater than 2344 and the EC50 was 4.27 nM. For the same compound, in data set [2], the EC50 was greater than 10000 nM.

With `Cc1oc(S(=O)(=O)c2ccc3c(c2)nc(C(C)(C)C)n3CC2CCOCC2)cc1S(C)(=O)=O` [Co. No. 68], the melting point is 204 to 205 °C. In addition, in data set [1], the “ratio CB2 agonism over CB1 agonism” value worked out at 116 and the EC50 is 3.09 nM. The EC50 in data set [2] is 363 nM.
